In patent US9492472B2, “Compositions and methods of treating cancer” (Case Western Reserve University, priority 2009, dated 2016):
Peptide text beside a SMILES is read from it.

Legend:
[1] = Cell penetrating capacity of the pentapeptide; type: cell-based; conditions: cells incubated with the peptide >1 hr (n.s.)
[2] = reported earlier; cited from earlier work

Compound | toxicity (A7 cells) | entry into cells without Ca2+ [1] | cell penetrating capacity [2]
CC[C@H](C)[C@H](NC(=O)[C@H](CC(C)C)NC(=O)[C@H](Cc1ccccc1)NC(=O)[C@H](CO)NC(=O)[C@@H](NC(=O)[C@H](CC(C)C)NC(=O)[C@H](CC(C)C)NC(=O)[C@@H](NC(=O)[C@@H](NC(=O)[C@@H]1CCCN1C(=O)[C@@H]1CCCN1C(=O)[C@H](CCCCN)NC(=O)[C@@H]1CCCN1C(=O)[C@H](CCCNC(=N)N)NC(=O)[C@H](CCCCN)NC(=O)[C@@H](N)CCCCN)C(C)C)[C@@H](C)CC)[C@@H](C)CC)C(=O)N[C@@H](Cc1ccccc1)C(=O)N[C@@H](CC(C)C)C(=O)N[C@H](C(=O)N[C@H](C(=O)NCC(=O)O)C(C)C)[C@@H](C)CC [KKRPK-PrP-GPI-PSS] (H-KKRPKPPVILLISFLIFLIVG-OH) | not toxic | – | –
KKRPK (listed as Homo sapiens) [cell penetrating pentapeptide, transport moiety] | – | can enter the cells | has cell penetrating capacity
